Assay [1] addresses T1, Mushroom tyrosinase (Agaricus bisporus, UniProt O42713+Q00024+C7FF04+C7FF05).
Description: Inhibition of mushroom tyrosinase using L-DOPA as substrate
Assay [2] addresses T1, Mushroom tyrosinase. The source holds these as a separate data set.
Description: Inhibition of mushroom tyrosinase using L-tyrosine as substrate
The target of assay [3] is T1, Mushroom tyrosinase. Kind of assay: Non-competitive inhibition of mushroom tyrosinase using L-tyrosine as substrate by Lineweaver-Burk blot analysis.
For assay [4], the target named is T2, Mushroom tyrosinase (Agaricus bisporus) (UniProt O42713+Q00024+C7FF04+C7FF05). The assay can be described thus: Reversible inhibition of mushroom tyrosinase using L-tyrosine as substrate by Lineweaver-Burk plot analysis.
The target of assay [5] is T2, Mushroom tyrosinase (Agaricus bisporus). Kind of assay: […] inhibition of mushroom tyrosinase using L-tyrosine as substrate by Lineweaver-Burk blot analysis.

Activity calls are given as the source filed them. The rule behind the calls is not given here.

Take `CC#CCOC[C@H]1OC(OCC#CC)[C@H](OCc2ccccc2)[C@@H](OCc2ccccc2)[C@@H]1OCc1ccccc1` (stereo partly drawn): the IC50 is greater than 500 µM at Mushroom tyrosinase [1] and 72 µM at Mushroom tyrosinase [2]. At Mushroom tyrosinase [3], this compound showed a Ki of 32 µM. For the same compound, in assay [4], the inhibition entry is “Active”.

As for `CC#CCOC1O[C@H](COCc2ccccc2)[C@@H](OCc2ccccc2)[C@H](OCc2ccccc2)[C@H]1OCc1ccccc1` (stereo partly drawn), the half-maximal inhibitory concentration (IC50) on Mushroom tyrosinase [1] is 70.7 µM; against Mushroom tyrosinase [2] it was 54 µM. Besides, at Mushroom tyrosinase [3], the Ki was found to be 21 µM. Also, in assay [5], the inhibition entry was “Active”.
